Data: patent publication US10292976B2, “Anti-malarial agent” (RIKEN, priority 2014, dated 2019)
Read-outs that look alike come from different tables or passages of the source.

Experiments:
[1] = test system: Plasmodium falciparum: 3D7 strain; assay: Antimalarial activity by LDH assay, 3D7 strain; format: cell-based; settings: for antimalarial activity (LDH assay, FIG. 2): 10 nM to 10 μM
Method: Compounds that chelate metal ions in various modes (L1 to L25 in FIG. 1) were selected, and their antimalarial activities were evaluated by LDH assay. Since infection with malaria causes an increase in the LDH activity, the evaluation can be made based on the criteria that the lower the detected LDH activity, the higher the antimalarial activity.
(§1) The LDH assay was carried out according to the following procedure. That is, 0.5 μL of a solution of each compound in DMSO was added to 100 μL of a culture liquid of erythrocytes (88% RPMI solution; 2% erythrocytes, provided by the Japanese Red Cross Society; and 10% human serum, provided by the Japanese Red Cross Society) infected with falciparum malaria parasites (Plasmodium falciparum: 3D7 strain) (infection rate of erythrocytes, 0.3%). The resulting culture liquid was subjected to culture in a 96-well plate under an atmosphere of 5% CO2, 5% O2, and 90% N2 at 37° C. for three days. Subsequently, the culture liquid was cooled at −80° C. for three hours, and then returned to room temperature. After addition of 150 μL of an LDH enzyme reaction liquid (0.15 mg/mL diaphorase, 37.5 μL/mL of 50% sodium lactate, 0.17 mg/mL NBT, 0.11 mg/mL APAD, 0.16 mL/mL of 1 M Tris-HCl (pH 8), and 8.3 μL/mL of Tween 20), the absorbance at 620 nm was measured.
By the same procedure as in Experiment 1, erythrocytes infected with malaria were treated with L6 (about 40 nM) together with iron ion (about 50 μM), copper ion (about 1 μM), or zinc ion (about 10 μM), and the antimalarial activity was evaluated by LDH assay.
(§2) According to the same procedure as in Experiment 1, the antimalarial activities of metal complexes (M-L6) synthesized by mixing various kinds of metal ions (MSO4: M=Zn, Fe, Cu, Co, Ni, or Mn) with L6 at a molar ratio of 1:1 were evaluated by LDH assay.

[2] = test system: drug-resistant malaria parasite K1 strain; assay: Antimalarial activity by LDH assay, K1 strain; format: cell-based, Plasmodium falciparum
Method: as §1, §2
According to the same procedure as in Experiment 1, the antimalarial activities of L18 and di-2-pyridylketone 4,4-dimethyl-3-thiosemicarbazone (Sigma) against the malaria parasite 3D7 strain and the drug-resistant malaria parasite K1 strain were evaluated by LDH assay.
According to the same procedure as in Experiment 1, the antimalarial activities of 4′-(4-Pyridyl)-2,2′:6′,2″-terpyridine (Tokyo Chemical Industry) against the malaria parasite 3D7 strain and the drug-resistant malaria parasite K1 strain were evaluated by LDH assay.

[3] = test system: HeLa: human cervical cancer cells; assay: Cytotoxicity by WST-8 assay, HeLa; format: cell-based; settings: Table 3, 48 hours, WST-8
Method: (§3) After treating various kinds of cells (HEK293T: human embryonic kidney cells; HeLa: human cervical cancer cells; NIH3T3: mouse fibroblast cells; tsNRK: rat kidney cells; and 3Y1: rat fibroblasts) with a metal chelator for 48 hours, the cytotoxicities of the cells were evaluated by WST-8 assay.
(§4) Subsequently, the following cell types: HL60 (human promyelocytic leukemia cells), HeLa (human cervical cancer cells), C3H10T1/2 (murine multipotential mesenchymal cells), and HEK293 (human embryonic kidney 293 cells); were treated with metal complexes M-L6 (M=Zn, Fe, Cu, Co, Ni, and Mn) for 48 hours, and then subjected to WST-8 assay to perform evaluation of the cytotoxicity of each kind of metal complex.

[4] = test system: HL60 (human promyelocytic leukemia cells); assay: Cytotoxicity by WST-8 assay, HL60; format: cell-based; settings: Table 3, 48 hours
Method: as §4

[5] = test system: C3H10T1/2 (murine multipotential mesenchymal cells); assay: Cytotoxicity by WST-8 assay, C3H10T1/2; format: cell-based; settings: Table 3, 48 hours
Method: as §4

[6] = test system: HEK293 (human embryonic kidney 293 cells); assay: Cytotoxicity by WST-8 assay, HEK293; format: cell-based; settings: Table 3, 48 hours
Method: as §4

malaria parasites = settings: cited from earlier work
[7] = Cytotoxicity by WST-8 assay, HEK293T; format: cell-based; settings: human, HEK293T cells
Method: as §3

[8] = Cytotoxicity by WST-8 assay, tsNRK; format: cell-based; settings: rat, tsNRK cells
Method: as §3

[9] = Cytotoxicity by WST-8 assay, 3Y1; format: cell-based; settings: rat, 3Y1 cells, 3Y1, 48 hours
Method: as §3

[10] = Cytotoxicity by WST-8 assay, HeLa; format: cell-based, human; settings: human, HeLa cells, HeLa, 48 hours, read-out: IC50 value, cytotoxicity
Method: as §3, §4

[11] = Cytotoxicity by WST-8 assay, NIH3T3; format: cell-based; settings: mouse, NIH3T3 cells, NIH3T3, 48 hours
Method: as §3

[12] = test system: Dd2 strain (drug-resistant malaria parasites); assay: Antimalarial activity by LDH assay, Dd2 strain; format: cell-based, Plasmodium falciparum; settings: Table 2, LDH assay, Experiment 6; read-out: IC50 antimalarial activity, Dd2
[13] = test system: HL60, HeLa, C3H10T1/2, and HEK293; assay: Cytotoxicity by WST-8 assay, summary for the four cell types of Experiment 6; format: cell-based; settings: C3H10T1/2, HEK293, 48 hours
Method: as §4

[14] = test system: mouse malaria parasites (Plasmodium berghei ANKA strain); assay: Life-prolonging effect in malaria-infected mice, oral administration; format: in vivo; settings: oral 200 mg/kg on Day 1, Day 3, and Day 6
Method: To mice (7 weeks old, Balb/c, male), erythrocytes infected with mouse malaria parasites (Plasmodium berghei ANKA strain) (total number of erythrocytes per mouse, about 10^7; rate of malaria-infected erythrocytes, 0.3%) were intraperitoneally injected. L6 was administered (20 mg/kg, intraperitoneal injection) to each of the thus obtained malaria-infected mice, and the rate of malaria-infected erythrocytes was measured. As a result, on Day 2 to Day 6 after the infection, the infection rate tended to increase in the negative control to which only DMSO was administered. […] The effect of L6 to reduce the infection rate was almost equivalent to the effect of an existing drug, chloroquine (CQ).
To malaria-infected mice obtained by the same procedure as in Experiment 4, an aqueous solution of L6 or the zinc complex Zn-L6 was orally administered (at a dose of 200 mg/kg on Day 1, Day 3, and Day 6; N=6), and changes in the number of surviving individuals were investigated. […] That is, it is thought that, by formation of metal complex with zinc ion, L6 can remarkably suppress the toxicity in vivo while sufficiently maintaining the antimalarial activity.

[15] = Plasmodium falciparum, 3D7, 3D7 strain, values in text, read-out: IC50 value for the antimalarial activity based on the LDH assay
[16] = Plasmodium falciparum, LDH assay, values in text, read-out: IC50 antimalarial activity against the K1 strain
[17] = Table 2, LDH assay, Experiment 6, read-out: IC50 antimalarial activity, 3D7

## c1ccc(-c2cc(-c3ccncc3)cc(-c3ccccn3)n2)nc1 [4′-(4-Pyridyl)-2,2′:6′,2″-terpyridine]
[1]; [15]
  IC50: ~0.16 µM
[2]; [16]
  IC50: ~0.07 µM

## O=C(Nc1cccc(CN(Cc2ccccn2)Cc2ccccn2)n1)c1ccccc1 [Bis(2-pyridylmethyl)(6-benzamide-2-pyridylmethyl)amine]
[1]; [15]
  IC50: ~0.07 µM

## O=S(=O)([O-])[O-].[Co+2].c1ccc(CN(Cc2ccccn2)Cc2ccccn2)nc1 [Co-L6]
[1]; [17]
  IC50: 0.55 µM
[3]
  IC50: 18 µM
[4]
  IC50: 6.6 µM
[5]
  IC50: 18 µM
[6]
  IC50: 20.6 µM

## O=S(=O)([O-])[O-].[Cu+2].c1ccc(CN(Cc2ccccn2)Cc2ccccn2)nc1 [Cu-L6]
[1]; [17]
  IC50: 0.12 µM
[3]
  IC50: 13 µM
[4]
  IC50: 5 µM
[5]
  IC50: 12 µM
[6]
  IC50: 6 µM

## CC(=O)N(O)CCCCCNC(=O)CCC(=O)N(O)CCCCCNC(=O)CCC(=O)N(O)CCCCCN [DFO, desferrioxamine]
Malaria parasites; Non-patent Document 3, read-out: antimalarial activity IC50
  IC50: 21 µM

## O=S(=O)([O-])[O-].[Fe+2].c1ccc(CN(Cc2ccccn2)Cc2ccccn2)nc1 [Fe-L6]
[1]; [17]
  IC50: 0.19 µM
[3]
  IC50: 9.5 µM
[4]
  IC50: 4.8 µM
[5]
  IC50: 9.6 µM
[6]
  IC50: 6.1 µM

## Nc1cc2cccnc2c2ncccc12 [L3, (1,10)-Phenanthrolin-5-amine]
[7]; 1st measurement
  IC50 at 48 h: 0.49 µM
[7]; 2nd measurement
  IC50 at 48 h: 0.47 µM
[8]; 1st measurement
  IC50 at 48 h: 6.12 µM
[8]; 2nd measurement
  IC50 at 48 h: 3.08 µM
[9]; 1st measurement
  IC50 at 48 h: 0.73 µM
[9]; 2nd measurement
  IC50 at 48 h: 0.67 µM

## c1ccc(CN(CCN(Cc2ccccn2)Cc2ccccn2)Cc2ccccn2)nc1 [L7, N,N,N′,N′-Tetrakis(2-pyridylmethyl)ethylenediamine, reference compound]
[7]; 1st measurement
  IC50 at 48 h: 1.99 µM
[7]; 2nd measurement
  IC50 at 48 h: 3.14 µM
[10]; 1st measurement (Table 1)
  IC50 at 48 h: 5.53 µM
[10]; 2nd measurement (Table 1)
  IC50 at 48 h: 4.96 µM
[11]; 1st measurement
  IC50 at 48 h: 1.66 µM
[11]; 2nd measurement
  IC50 at 48 h: 1.79 µM
[8]; 1st measurement
  IC50 at 48 h: 1.84 µM
[8]; 2nd measurement
  IC50 at 48 h: 2.09 µM
[9]; 1st measurement
  IC50 at 48 h: 5.11 µM
[9]; 2nd measurement
  IC50 at 48 h: 4.93 µM
Malaria parasites; Non-patent Document 1
  inhibition of infection with malaria parasites: inhibits infection with malaria parasites

## c1ccc(-c2ccnc3c2ccc2c(-c4ccccc4)ccnc23)cc1 [L17, 4,7-Diphenyl-1,10-phenanthroline]
[1]; result in words
  antimalarial activity (LDH assay, FIG. 2): relatively strong antimalarial activity

## c1ccc(-c2cccc(-c3ccccn3)n2)nc1 [L18, 2,2′:6′,2″-Terpyridine]
[1]; result in words
  antimalarial activity (LDH assay, FIG. 2): relatively strong antimalarial activity
[1]; [15]
  IC50: ~0.28 µM
[2]; [16]
  IC50: ~0.12 µM

## O=S(=O)([O-])[O-].[Mn+2].c1ccc(CN(Cc2ccccn2)Cc2ccccn2)nc1 [Mn-L6]
[1]; [17]
  IC50: 0.11 µM
[3]
  IC50: 4.5 µM
[4]
  IC50: 1.5 µM
[5]
  IC50: 4.2 µM
[6]
  IC50: 3.7 µM

## O=S(=O)([O-])[O-].[Ni+2].c1ccc(CN(Cc2ccccn2)Cc2ccccn2)nc1 [Ni-L6]
[1]; [17]
  IC50: 0.74 µM
[3]
  IC50: 32 µM
[4]
  IC50: 16 µM
[5]
  IC50: 54 µM
[6]
  IC50: 47.6 µM

## O=S(=O)([O-])[O-].[Zn+2].c1ccc(CN(Cc2ccccn2)Cc2ccccn2)nc1 [Zn-L6]
[1]; LDH assay, metal ion:L6 molar ratio 1:1, result in words
  antimalarial activity of metal complex compared to L6 alone: almost the same as that in the case of L6 alone
[1]; [17]
  IC50: 0.093 µM
[2]; Table 2, LDH assay, Experiment 6, read-out: IC50 antimalarial activity, K1
  IC50: 0.089 µM
[12]
  IC50: 0.166 µM
[3]
  IC50: > 100 µM
[4]
  IC50: > 100 µM
[5]
  IC50: > 100 µM
[6]
  IC50: > 100 µM
[13]
  IC50: > 100 µM
[14]
  cure / infection rate of malaria: completely cured mice, in which the infection rate of malaria was 0%, could be found
  life-prolonging effect (number of surviving individuals): significantly better life-prolonging effect than in the control

## C[C@@H]1CC[C@H]2[C@@H](C)C(=O)O[C@@H]3O[C@@]4(C)CC[C@@H]1[C@]32OO4 [artemisinin, reference compound]
[1]; [15]
  IC50: ~0.016 µM

## CCN(CC)CCCC(C)Nc1ccnc2cc(Cl)ccc12 (stereo not drawn) [chloroquine, reference compound]
[1]; Plasmodium falciparum, 3D7, read-out: IC50 value for the antimalarial activity based on the LDH assay
  IC50: ~0.045 µM

## CN(C)C(=S)NN=C(c1ccccn1)c1ccccn1 [di-2-pyridylketone 4,4-dimethyl-3-thiosemicarbazone]
[1]; [15]
  IC50: ~0.004 µM
[2]; [16]
  IC50: ~0.003 µM

## CN(C(=S)NN=C(c1ccccn1)c1ccccn1)C1CCCCC1 [di-2-pyridylketone-4-cyclohexyl-4-methyl-3-thiosemicarbazone]
[1]; [15]
  IC50: ~0.002 µM
